Test results reported in patent US8192962B2, “Processes for detecting toxic substances” (Daikin Industries, Ltd., priority 2001, dated 2012).

Test system: Energy system protein genes
Test: DNA chip mRNA expression in yeast, energy system protein genes (Table 4)
Format: cell-based, Saccharomyces cerevisiae S288C
Method in brief: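 Ratios compare mRNA levels in stressed and control S. cerevisiae. Each toxicant was applied for two hours to log-phase cultures at 25° C. at a sub-lethal, growth-inhibiting level; fluorescent cDNA (Cy3- or Cy5-dUTP) was hybridized to a genome-wide yeast chip for over 12 h at 65° C.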

In the case of `[Cl][Pb][Cl]` [(4), PbCl2], the “The level of expressed mRNA in the presence of chemical substance/The level of expressed mRNA in the absence of chemical substance” value (yeast gene YJR048W) is reported as 1.4, the “The level of expressed mRNA in the presence of chemical substance/The level of expressed mRNA in the absence of chemical substance” value (yeast gene YJR121W, cells incubated two hours with the chemical substance) is reported as 1.0 and the “The level of expressed mRNA in the presence of chemical substance/The level of expressed mRNA in the absence of chemical substance” value (yeast gene YJR155W) is reported as 2.5. The “The level of expressed mRNA in the presence of chemical substance/The level of expressed mRNA in the absence of chemical substance” value (yeast gene YKL016C, cells incubated two hours with the chemical substance) was 1.7, the “The level of expressed mRNA in the presence of chemical substance/The level of expressed mRNA in the absence of chemical substance” value (yeast gene YKL060C, cells incubated two hours with the chemical substance) was 1.0 and the “The level of expressed mRNA in the presence of chemical substance/The level of expressed mRNA in the absence of chemical substance” value (yeast gene YKL141W, cells incubated two hours with the chemical substance) was 1.7. The “The level of expressed mRNA in the presence of chemical substance/The level of expressed mRNA in the absence of chemical substance” value (yeast gene YKL148C, cells incubated two hours with the chemical substance) was 0.7, the “The level of expressed mRNA in the presence of chemical substance/The level of expressed mRNA in the absence of chemical substance” value (yeast gene YKR009C, cells incubated two hours with the chemical substance) was 0.9 and the “The level of expressed mRNA in the presence of chemical substance/The level of expressed mRNA in the absence of chemical substance” value (yeast gene YKR058W, cells incubated two hours with the chemical substance, 25° C., YPD medium) was 1.9. For the same compound, the “The level of expressed mRNA in the presence of chemical substance/The level of expressed mRNA in the absence of chemical substance” value (yeast gene YKR097W) was 3.3, the “The level of expressed mRNA in the presence of chemical substance/The level of expressed mRNA in the absence of chemical substance” value (yeast gene YLL041C, cells incubated two hours with the chemical substance) was 1.0 and the “The level of expressed mRNA in the presence of chemical substance/The level of expressed mRNA in the absence of chemical substance” value (yeast gene YLR038C, cells incubated two hours with the chemical substance) was 2.1. For the same compound, the “The level of expressed mRNA in the presence of chemical substance/The level of expressed mRNA in the absence of chemical substance” value (yeast gene YLR044C, cells incubated two hours with the chemical substance) was 0.9, the “The level of expressed mRNA in the presence of chemical substance/The level of expressed mRNA in the absence of chemical substance” value (yeast gene YLR134W, cells incubated two hours with the chemical substance) was 0.8 and the “The level of expressed mRNA in the presence of chemical substance/The level of expressed mRNA in the absence of chemical substance” value (yeast gene YLR258W, cells incubated two hours with the chemical substance) was 3.5. For the same compound, the “The level of expressed mRNA in the presence of chemical substance/The level of expressed mRNA in the absence of chemical substance” value (yeast gene YLR284C, cells incubated two hours with the chemical substance) was 1.9, the “The level of expressed mRNA in the presence of chemical substance/The level of expressed mRNA in the absence of chemical substance” value (yeast gene YLR295C, cells incubated two hours with the chemical substance, 25° C., YPD medium) was 1.7 and the “The level of expressed mRNA in the presence of chemical substance/The level of expressed mRNA in the absence of chemical substance” value (yeast gene YLR304C, cells incubated two hours with the chemical substance) was 0.7. The “The level of expressed mRNA in the presence of chemical substance/The level of expressed mRNA in the absence of chemical substance” value (yeast gene YLR345W) was 1.2, the “The level of expressed mRNA in the presence of chemical substance/The level of expressed mRNA in the absence of chemical substance” value (yeast gene YLR354C, cells incubated two hours with the chemical substance) was 1.5 and the “The level of expressed mRNA in the presence of chemical substance/The level of expressed mRNA in the absence of chemical substance” value (yeast gene YLR377C, cells incubated two hours with the chemical substance) was 1.2. For the same compound, the “The level of expressed mRNA in the presence of chemical substance/The level of expressed mRNA in the absence of chemical substance” value (yeast gene YLR395C, cells incubated two hours with the chemical substance) was 1.9, the “The level of expressed mRNA in the presence of chemical substance/The level of expressed mRNA in the absence of chemical substance” value (yeast gene YML087C) was 2.5 and the “The level of expressed mRNA in the presence of chemical substance/The level of expressed mRNA in the absence of chemical substance” value (yeast gene YML120C, cells incubated two hours with the chemical substance) was 1.9. For the same compound, the “The level of expressed mRNA in the presence of chemical substance/The level of expressed mRNA in the absence of chemical substance” value (yeast gene YML129C, cells incubated two hours with the chemical substance) was 1.2, the “The level of expressed mRNA in the presence of chemical substance/The level of expressed mRNA in the absence of chemical substance” value (yeast gene YMR073C, cells incubated two hours with the chemical substance) was 1.5 and the “The level of expressed mRNA in the presence of chemical substance/The level of expressed mRNA in the absence of chemical substance” value (yeast gene YMR118C) was 1.6. The “The level of expressed mRNA in the presence of chemical substance/The level of expressed mRNA in the absence of chemical substance” value (yeast gene YMR205C, cells incubated two hours with the chemical substance) was 0.8, the “The level of expressed mRNA in the presence of chemical substance/The level of expressed mRNA in the absence of chemical substance” value (yeast gene YMR261C, cells incubated two hours with the chemical substance) was 0.8 and the “The level of expressed mRNA in the presence of chemical substance/The level of expressed mRNA in the absence of chemical substance” value (yeast gene YMR267W, cells incubated two hours with the chemical substance, 25° C., YPD medium) was 0.9. The “The level of expressed mRNA in the presence of chemical substance/The level of expressed mRNA in the absence of chemical substance” value (yeast gene YMR323W, cells incubated two hours with the chemical substance) was 1.1, the “The level of expressed mRNA in the presence of chemical substance/The level of expressed mRNA in the absence of chemical substance” value (yeast gene YNL071W) was 1.5 and the “The level of expressed mRNA in the presence of chemical substance/The level of expressed mRNA in the absence of chemical substance” value (yeast gene YNL202W, cells incubated two hours with the chemical substance) was 1.7. For the same compound, the “The level of expressed mRNA in the presence of chemical substance/The level of expressed mRNA in the absence of chemical substance” value (yeast gene YNL241C) was 1.0, the “The level of expressed mRNA in the presence of chemical substance/The level of expressed mRNA in the absence of chemical substance” value (yeast gene YNL331C) was 1.0 and the “The level of expressed mRNA in the presence of chemical substance/The level of expressed mRNA in the absence of chemical substance” value (yeast gene YOL086C, cells incubated two hours with the chemical substance) was 1.1. For the same compound, the “The level of expressed mRNA in the presence of chemical substance/The level of expressed mRNA in the absence of chemical substance” value (yeast gene YOL165C) was 0.9, the “The level of expressed mRNA in the presence of chemical substance/The level of expressed mRNA in the absence of chemical substance” value (yeast gene YOR142W, cells incubated two hours with the chemical substance) was 1.0 and the “The level of expressed mRNA in the presence of chemical substance/The level of expressed mRNA in the absence of chemical substance” value (yeast gene YOR178C, cells incubated two hours with the chemical substance) was 2.3. For the same compound, the “The level of expressed mRNA in the presence of chemical substance/The level of expressed mRNA in the absence of chemical substance” value (yeast gene YOR388C, cells incubated two hours with the chemical substance) was 4.7, the “The level of expressed mRNA in the presence of chemical substance/The level of expressed mRNA in the absence of chemical substance” value (yeast gene YPL031C, cells incubated two hours with the chemical substance) was 0.8 and the “The level of expressed mRNA in the presence of chemical substance/The level of expressed mRNA in the absence of chemical substance” value (yeast gene YPL061W, cells incubated two hours with the chemical substance) was 1.3. For the same compound, the “The level of expressed mRNA in the presence of chemical substance/The level of expressed mRNA in the absence of chemical substance” value (yeast gene YPL088W) was 2.5, the “The level of expressed mRNA in the presence of chemical substance/The level of expressed mRNA in the absence of chemical substance” value (yeast gene YPL171C) was 2.2 and the “The level of expressed mRNA in the presence of chemical substance/The level of expressed mRNA in the absence of chemical substance” value (yeast gene YPL240C) was 0.9. The “The level of expressed mRNA in the presence of chemical substance/The level of expressed mRNA in the absence of chemical substance” value (yeast gene YPL262W, cells incubated two hours with the chemical substance) was 1.2, the “The level of expressed mRNA in the presence of chemical substance/The level of expressed mRNA in the absence of chemical substance” value (yeast gene YPL275W, cells incubated two hours with the chemical substance) was 5.1 and the “The level of expressed mRNA in the presence of chemical substance/The level of expressed mRNA in the absence of chemical substance” value (yeast gene YPL276W, cells incubated two hours with the chemical substance) was 3.0. The “The level of expressed mRNA in the presence of chemical substance/The level of expressed mRNA in the absence of chemical substance” value (yeast gene YPR048W, cells incubated two hours with the chemical substance) was 1.1 and the “The level of expressed mRNA in the presence of chemical substance/The level of expressed mRNA in the absence of chemical substance” value (yeast gene YPR184W, cells incubated two hours with the chemical substance) was 2.2.
